The values below come from patent publication US20260325502A1, “COMPOSITION FOR PREVENTING OR TREATING CANCER PAIN” (MARUISHI PHARMACEUTICAL CO., LTD., priority 2023, published 2026).

Data set [1] deals with cancer pain animal models. Conditions: pregabalin; Non-Patent Literature 2; cited from earlier work.
For data set [2] the following is noted: Non-Patent Literatures 2 and 8; cited from earlier work.
Data set [3] concerns central nervous system. The settings on record: rats; Table 2 in Non-Patent Literature 9; cited from earlier work.
The test system of data set [4] is cancer pain model rats (MRMT-1 rat breast cancer cells, bone metastasis model). The data set is described as follows: Measurement of pain threshold in bone metastasis cancer pain model rats (Dynamic Plantar Aesthesiometer). The data set is classed as in vivo, Crl:CD (SD). The settings on record: 10 mg/kg and 30 mg/kg, oral. The procedure: Five-week-old female Crl:CD (SD) SPF rats (Charles River Japan) were injected with MRMT-1 cells (rat breast cancer cells) at 3×10^4 cells/20 μL/body into the medullary cavity at the proximal end of the diaphysis of the right tibia to create a bone metastasis model (day 0). On day 10 after the transplantation of the cancer cells (day 10), the rats were divided into 4 groups of 8 rats each: a control group (with administration of distilled water (trade name: Otsuka Distilled Water) manufactured by Otsuka Pharmaceutical Factory, Inc.), a 10 mg/kg compound A administration group, a 30 mg/kg compound A administration group, and a morphine administration group, as shown in Table 1 below. On day 11 after the transplantation of the cancer cells (day 11), each drug was orally or subcutaneously administered to the rats at a dose of 2 mL/kg. The pain threshold (g) of the plantar surface of the right hind paw was measured using a Dynamic Plantar Aesthesiometer (37450, Ugo Basile) under blinded conditions 1, 3, 6, and 24 hours after the administration. The average value of the pain threshold-time area under the curve (AUC) (g·hr) for 24 hours post-administration was determined for each group.

The test system of data set [5] is mice. The data set is described as follows: Measurement of spontaneous locomotor activity (Supermex). The data set is classed as in vivo, mouse, ICR. The protocol:
Five-to six-week-old male ICR-SPF mice (Japan SLC, Inc.) were divided into 5 groups of 8 mice each: a control group (with administration of distilled water (trade name: Otsuka Distilled Water) manufactured by Otsuka Pharmaceutical Factory, Inc.), two 10 mg/kg compound A administration groups, and two 30 mg/kg compound A administration groups, as shown in Table 2 below. Compound A or distilled water at a dose of 10 mL/kg was orally administered to the mice. One or three hours after the administration of compound A or distilled water, the mice were transferred to a measurement cage, and spontaneous locomotor activity was measured for 30 minutes using Supermex (registered trademark) (Muromachi Kikai Co., Ltd.).

In data set [6] the test system is rats. Put plainly: Measurement of coordinated motor ability (rotarod). The data set is classed as in vivo, rat, SD. The procedure:
Five- to six-week-old male SD-SPF rats (Japan SLC, Inc.) were used in this experiment. The experimental schedule included training using a rotarod (SN445, Shinano Seisakusyo) for 3 days (6 times a day), starting from 3 days before the day of administration. On the day of administration, pre-values (time to stay on the rotarod before the administration of compound A or distilled water) were measured twice, and the rats that spent 180 seconds or more on the rotarod in either of the two measurements were selected. The rats were divided into 3 groups of 6 rats each: a control group (with administration of distilled water (trade name: Otsuka Distilled Water) manufactured by Otsuka Pharmaceutical Factory, Inc.), a 10 mg/kg compound A administration group, and a 30 mg/kg compound A administration group, as shown in Table 3 below. Compound A or distilled water was orally administered to the rats at a dose of 10 mL/kg, and the time to stay on the rotarod was measured 1, 3, 6, and 24 hours after the administration under the test conditions of 10 rotations/min with a cutoff of 180 seconds.

The subject of data set [7] is serotonin 3 receptor. Conditions: Patent Literatures 1 and 2; cited from earlier work.
The mark [8] stands for this setting: summary of Experiments 1 and 2, 10 to 30 mg/kg.

“Also recorded” adds a separate entry of the source.

In the case of `CC(C)C[C@H](CN)CC(=O)O` [Pregabalin], the “effect in cancer pain animal models” value in data set [1] is “effective in cancer pain animal models”. In data set [2], the side effects entry was “sedative effects such as dizziness, drowsiness, and loss of consciousness”. The “influence on central nervous system relative to analgesic dose” value in data set [3] is listed as “suppresses the functions of the central nervous system (inhibits coordinated motor ability) at a dose lower than that is required to exert an analgesic effect”.
For `NC1CCN(c2cccc(Cl)n2)CC1` [compound A, 1-(6-chloropyridin-2-yl) piperidin-4-amine], the “cancer pain threshold compared to control group” value in data set [4] (single dose, right hind paw, measured 1, 3, 6 and 24 h after administration, Dunnett's test, critical value of 1%, n = 8, FIG. 1) is “significant difference was observed; also recorded: significantly increased”. In data set [4] (versus morphine 3 mg/kg subcutaneous, up to 24 h after administration), the “pain threshold-time area under the curve (AUC) compared to subcutaneous morphine” value is given as “no statistically significant difference”. The “changes in spontaneous locomotor activity compared to control group” value in data set [5] (10 mg/kg and 30 mg/kg, oral, 1 or 3 h after administration, measured for 30 min, Dunnett's test, critical value of 5%, n = 8, FIG. 2) is “No statistical difference was observed; also recorded: no significant changes”. Besides, in data set [5] (setting [8]), the “suppression of spontaneous locomotor activity at a dose that induces an analgesic effect” value was “does not suppress spontaneous locomotor activity”. Moreover, the “changes in coordinated motor ability (time to stay on the rotarod) compared to control group” value in data set [6] (10 mg/kg and 30 mg/kg, oral, 1, 3, 6 and 24 h after administration, 10 rotations/min, cutoff 180 s, Dunnett's or Steel's test, critical value of 5%, n = 6, FIG. 3) is “No statistically significant difference was observed; also recorded: no significant changes”. The “suppression of coordinated motor ability at a dose that induces an analgesic effect” value in data set [6] (setting [8]) was “does not suppress spontaneous locomotor activity or coordinated motor ability”. In data set [7], the “activity at serotonin 3 receptor” value is “serotonin 3 receptor agonist”.
